Results from PubChem BioAssay (NCI).
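In this assay, cells in 96-well plates receive the compound at five concentrations for 48 hours. Endpoints are linearly interpolated between the surrounding concentrations. Abbreviation: GI50, concentration required for 50% inhibition of growth. The concentration for full growth arrest is given as TGI.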

Key:
Assay in all cases: inhibition of tumour cell growth, NCI panel, 48 h
DMS 114 small cell lung = test system: DMS 114 small cell lung
XF 498 CNS = test system: XF 498 CNS
KM20L2 colon = test system: KM20L2 colon
RXF-631 renal = test system: RXF-631 renal
SNB-78 CNS = test system: SNB-78 CNS
M19-MEL melanoma = test system: M19-MEL melanoma
DMS 273 small cell lung = test system: DMS 273 small cell lung
HOP-18 NSCLC = test system: HOP-18 NSCLC
MDA-N = test system: MDA-N

| SMILES | TGI (DMS 114 small cell lung) [µM] | TGI (XF 498 CNS) [µM] | TGI (KM20L2 colon) [µM] | TGI (RXF-631 renal) [µM] | TGI (SNB-78 CNS) [µM] | TGI (M19-MEL melanoma) [µM] | TGI (DMS 273 small cell lung) [µM] | TGI (HOP-18 NSCLC) [µM] | TGI (MDA-N) [µM] | GI50 (HOP-18 NSCLC) [µM] | GI50 (M19-MEL melanoma) [µM] |
| --- | --- | --- | --- | --- | --- | --- | --- | --- | --- | --- | --- |
| O=c1cccccc1NCCNc1cccccc1=O | > 100 | > 100 | > 100 | > 100 | > 100 | > 100 | > 100 | – | – | – | – |
| O=C1OC(c2ccccc2)=N/C1=C/N1CCCC1C(=O)O (centres undefined) | > 100 | > 100 | > 100 | > 100 | > 100 | > 100 | > 100 | > 100 | – | – | – |
| COc1cccc2ccc3c(c12)C(=O)OC31CCc2c(C)cccc21 (centres undefined) | > 31.6 | 86.2 | > 31.6 | – | > 100 | > 31.6 | > 31.6 | > 31.6 | > 100 | – | – |
| O=C(/C=C/c1ccccc1)CCc1c(O)c2ccccc2oc1=O | – | – | – | – | – | – | – | – | > 100 | – | – |
| C[C@@H](c1ccccc1)N(CC#N)C1CCC[C@H]1O (some centres undefined) | – | > 100 | > 100 | > 100 | > 100 | > 100 | > 100 | > 100 | – | – | – |
| [N-]=[N+]=Nc1c(Br)c(=O)[nH]c(=O)n1COCCO | > 100 | > 100 | – | > 100 | > 100 | > 100 | > 100 | > 100 | – | – | – |
| O=C1C2=C(c3ccccc31)C(c1ccc(F)cc1)N1C(=O)CCSC1=N2 (centres undefined) | > 100 | > 100 | > 100 | – | – | > 100 | > 100 | – | – | – | – |
| O=C(Nc1ccccc1C(=O)O)C(=O)C(C(=O)c1ccccc1-c1ccccc1)C1OC(=O)c2ccccc21 (centres undefined) | – | 22 | 44 | – | > 100 | 64.2 | 95.3 | 28.2 | – | – | – |
| CCCCCCCCCCCCCCC(O)C1CCC(C(O)CCC(O)CCCCCC(O)CC2=CC(C)OC2=O)O1 (centres undefined) | 4.57 | 4.88 | 18.3 | 16.4 | 8.31 | 11.2 | 4.75 | – | – | – | – |
| C=Cc1cnc([N+](=O)[O-])n1C | – | – | – | – | – | – | – | – | > 100 | – | – |
| Cc1cc(Cl)ccc1NC(=O)CCCC(=O)C(C(=O)c1ccccc1)c1ccccc1 (centres undefined) | > 100 | – | > 100 | > 100 | > 100 | > 100 | > 100 | – | – | – | – |
| COc1cc2c3c(c1OC)Oc1ccc(cc1)CC1c4c(cc(OC)c(OC)c4Oc4ccc(cc4)CC3N(C)CC2)CCN1C (centres undefined) | 35.9 | – | 45.2 | – | – | 31.3 | 37.2 | 84.2 | – | – | – |
| N[C@H](C(=O)O)[C@@H](Cl)CC(=O)O | > 100 | > 100 | > 100 | – | > 100 | > 100 | > 100 | > 100 | – | – | – |
| Cc1cc(O)c2c(c1)C(=O)C(c1c(C)cc3c(c1O)C(=O)C1OC1C3=O)=CC2=O (centres undefined) | – | – | – | – | – | – | – | – | 2.75 | – | – |
| CNC(C)Cc1ccc(O)cc1 (centres undefined) | > 100 | > 100 | > 100 | > 100 | > 100 | – | > 100 | > 100 | – | – | – |
| COc1ccc(/C=C/c2cnc3ccccc3n2)cc1OC | – | – | – | – | – | – | – | – | > 100 | – | – |
| CCOC(=O)NC(=O)c1cn(C2OC(CO)C(O)C2O)c(=O)[nH]c1=O (centres undefined) | > 100 | – | > 100 | > 100 | – | > 100 | > 100 | – | – | – | – |
| CCC1(CC)C(=O)[N-]C(=O)[N-]C1=O.[Au+].[Au+].c1ccc([PH+](c2ccccc2)c2ccccc2)cc1.c1ccc([PH+](c2ccccc2)c2ccccc2)cc1 | – | – | – | – | – | 2.17 | – | 1.16 | – | 0.256 | 0.937 |
| Cc1ccc(C)c2c1CCc1cc3ccccc3nc1-2 | > 100 | > 100 | > 100 | – | > 100 | > 100 | – | > 100 | – | – | – |
